In US20250243196A1, “CITRON KINASE INHIBITORS” (The Cleveland Clinic Foundation, priority 2021, published 2025):
pIC50: −log10 of the molar value.

What was measured:
Type in all cases: biochemical
FGFR4(h) = FGFR4(h) (Homo sapiens (Human), UniProt P22455); assay: KinaseProfiler panel; set-up: dose or concentration left out as unconfirmed; conditions: activity remaining
PKCι(h) = PKCι(h) (Homo sapiens (Human), UniProt P41743); assay: KinaseProfiler panel; set-up: dose or concentration left out as unconfirmed; conditions: activity remaining
IKKα(h) = IKKα(h) (Homo sapiens (Human), UniProt O15111); assay: KinaseProfiler panel; set-up: dose or concentration left out as unconfirmed; conditions: activity remaining
PKCβII(h) = PKCβII(h) (Homo sapiens (Human), UniProt P05771); assay: KinaseProfiler panel; set-up: dose or concentration left out as unconfirmed; conditions: activity remaining
TrkC(h) = TrkC(h) (Homo sapiens (Human), UniProt Q16288); assay: KinaseProfiler panel; set-up: dose or concentration left out as unconfirmed; conditions: activity remaining
TAF1L(h) = TAF1L(h) (Homo sapiens (Human), UniProt Q8IZX4); assay: KinaseProfiler panel; set-up: dose or concentration left out as unconfirmed; conditions: activity remaining
SLK(h) = SLK(h) (Homo sapiens (Human), UniProt Q9H2G2); assay: KinaseProfiler panel; set-up: dose or concentration left out as unconfirmed; conditions: activity remaining
Chain of SLK(h) (Q9H2G2 whole entry): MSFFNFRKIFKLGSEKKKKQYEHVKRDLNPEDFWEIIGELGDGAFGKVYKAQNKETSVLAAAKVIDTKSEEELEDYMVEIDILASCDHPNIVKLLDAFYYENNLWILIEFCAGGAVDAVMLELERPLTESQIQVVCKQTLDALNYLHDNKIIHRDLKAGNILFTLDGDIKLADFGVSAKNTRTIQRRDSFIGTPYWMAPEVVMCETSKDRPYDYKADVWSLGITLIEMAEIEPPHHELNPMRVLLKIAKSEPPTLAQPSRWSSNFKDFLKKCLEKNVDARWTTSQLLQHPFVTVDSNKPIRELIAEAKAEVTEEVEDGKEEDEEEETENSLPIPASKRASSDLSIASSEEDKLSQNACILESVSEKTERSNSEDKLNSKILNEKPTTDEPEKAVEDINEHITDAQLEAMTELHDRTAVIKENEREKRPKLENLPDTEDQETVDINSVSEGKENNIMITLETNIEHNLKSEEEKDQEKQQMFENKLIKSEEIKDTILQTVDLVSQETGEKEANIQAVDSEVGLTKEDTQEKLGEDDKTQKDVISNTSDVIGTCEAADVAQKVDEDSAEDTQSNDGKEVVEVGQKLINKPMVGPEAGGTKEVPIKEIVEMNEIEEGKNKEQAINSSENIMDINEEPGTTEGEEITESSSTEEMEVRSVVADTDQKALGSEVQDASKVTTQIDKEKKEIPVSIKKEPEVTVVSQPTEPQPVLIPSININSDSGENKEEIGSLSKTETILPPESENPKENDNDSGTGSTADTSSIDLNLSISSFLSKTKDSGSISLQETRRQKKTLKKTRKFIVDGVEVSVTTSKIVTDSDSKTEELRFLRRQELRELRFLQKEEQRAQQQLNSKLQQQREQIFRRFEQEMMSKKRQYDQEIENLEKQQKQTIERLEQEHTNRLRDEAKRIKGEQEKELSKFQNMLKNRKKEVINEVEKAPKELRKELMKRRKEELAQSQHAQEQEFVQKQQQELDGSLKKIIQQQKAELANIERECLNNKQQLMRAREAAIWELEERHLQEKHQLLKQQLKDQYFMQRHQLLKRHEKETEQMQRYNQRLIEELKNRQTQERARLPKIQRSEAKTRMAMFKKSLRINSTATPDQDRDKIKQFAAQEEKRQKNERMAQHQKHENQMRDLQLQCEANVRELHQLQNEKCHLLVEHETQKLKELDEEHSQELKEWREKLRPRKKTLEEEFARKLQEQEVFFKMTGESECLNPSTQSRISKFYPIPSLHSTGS

HIPK1(h) = HIPK1(h) (Homo sapiens (Human), UniProt Q86Z02); assay: KinaseProfiler panel; set-up: dose or concentration left out as unconfirmed; conditions: activity remaining
GSK3β(h) = GSK3β(h) (Homo sapiens (Human), UniProt P49841); assay: KinaseProfiler panel; set-up: dose or concentration left out as unconfirmed; conditions: activity remaining
MOK(h) = MOK(h) (Homo sapiens (Human), UniProt Q9UQ07); assay: KinaseProfiler panel; conditions: activity remaining
SGK(h) = SGK(h) (Homo sapiens (Human), UniProt O00141); assay: KinaseProfiler panel; set-up: dose or concentration left out as unconfirmed; conditions: activity remaining
WNK4(h) = WNK4(h) (Homo sapiens (Human), UniProt Q96J92); assay: KinaseProfiler panel; set-up: dose or concentration left out as unconfirmed; conditions: activity remaining
TGFBR1(h) = TGFBR1(h) (Homo sapiens (Human), UniProt P36897); assay: KinaseProfiler panel; set-up: dose or concentration left out as unconfirmed; conditions: activity remaining
ATM(h) = ATM(h) (Homo sapiens (Human), UniProt Q13315); assay: KinaseProfiler panel; set-up: dose or concentration left out as unconfirmed; conditions: activity remaining
CaMKK2(h) = CaMKK2(h) (Homo sapiens (Human), UniProt Q96RR4); assay: KinaseProfiler panel; set-up: dose or concentration left out as unconfirmed; conditions: activity remaining
TTBK1(h) = TTBK1(h) (Homo sapiens (Human), UniProt Q5TCY1); assay: KinaseProfiler panel; set-up: dose or concentration left out as unconfirmed; conditions: activity remaining
NDR2(h) = NDR2(h) (Homo sapiens (Human), UniProt Q9Y2H1); assay: KinaseProfiler panel; set-up: dose or concentration left out as unconfirmed; conditions: activity remaining
EphA8(h) = EphA8(h) (Homo sapiens (Human), UniProt P29322); assay: KinaseProfiler panel; set-up: dose or concentration left out as unconfirmed; conditions: activity remaining
Chain of EphA8(h) (P29322 28-1005): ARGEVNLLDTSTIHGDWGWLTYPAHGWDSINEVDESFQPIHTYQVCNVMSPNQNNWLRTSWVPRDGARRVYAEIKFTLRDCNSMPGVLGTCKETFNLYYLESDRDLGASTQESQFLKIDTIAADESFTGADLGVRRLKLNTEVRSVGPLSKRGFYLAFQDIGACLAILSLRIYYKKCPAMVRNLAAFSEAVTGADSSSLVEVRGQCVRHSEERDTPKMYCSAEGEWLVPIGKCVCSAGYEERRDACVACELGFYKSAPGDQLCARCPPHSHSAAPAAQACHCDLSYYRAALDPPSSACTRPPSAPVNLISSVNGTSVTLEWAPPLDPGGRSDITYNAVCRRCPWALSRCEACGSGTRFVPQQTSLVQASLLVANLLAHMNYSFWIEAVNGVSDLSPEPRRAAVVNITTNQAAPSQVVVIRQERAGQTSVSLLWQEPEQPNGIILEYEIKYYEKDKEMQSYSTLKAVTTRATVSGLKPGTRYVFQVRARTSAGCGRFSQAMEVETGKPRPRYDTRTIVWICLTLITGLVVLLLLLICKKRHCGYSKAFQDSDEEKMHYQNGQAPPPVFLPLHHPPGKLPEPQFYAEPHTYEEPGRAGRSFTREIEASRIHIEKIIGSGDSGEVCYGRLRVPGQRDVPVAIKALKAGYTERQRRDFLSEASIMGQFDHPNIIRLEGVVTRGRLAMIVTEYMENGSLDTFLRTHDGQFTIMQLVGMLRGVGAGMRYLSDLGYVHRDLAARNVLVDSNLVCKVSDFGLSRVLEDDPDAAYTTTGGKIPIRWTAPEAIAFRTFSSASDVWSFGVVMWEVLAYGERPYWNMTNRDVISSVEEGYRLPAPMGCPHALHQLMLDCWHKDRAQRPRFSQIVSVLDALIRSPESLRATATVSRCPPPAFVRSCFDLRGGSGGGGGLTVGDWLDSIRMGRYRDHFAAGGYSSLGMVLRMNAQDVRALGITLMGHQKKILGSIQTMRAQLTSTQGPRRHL

EphB2(h) = EphB2(h) (Homo sapiens (Human), UniProt P29323); assay: KinaseProfiler panel; set-up: dose or concentration left out as unconfirmed; conditions: activity remaining
Lck(h) = Lck(h) (Homo sapiens (Human), UniProt P06239); assay: KinaseProfiler panel; set-up: dose or concentration left out as unconfirmed; conditions: activity remaining
MST2(h) = MST2(h) (Homo sapiens (Human), UniProt Q13188); assay: KinaseProfiler panel; set-up: dose or concentration left out as unconfirmed; conditions: activity remaining
Chain of MST2(h) (Q13188 whole entry): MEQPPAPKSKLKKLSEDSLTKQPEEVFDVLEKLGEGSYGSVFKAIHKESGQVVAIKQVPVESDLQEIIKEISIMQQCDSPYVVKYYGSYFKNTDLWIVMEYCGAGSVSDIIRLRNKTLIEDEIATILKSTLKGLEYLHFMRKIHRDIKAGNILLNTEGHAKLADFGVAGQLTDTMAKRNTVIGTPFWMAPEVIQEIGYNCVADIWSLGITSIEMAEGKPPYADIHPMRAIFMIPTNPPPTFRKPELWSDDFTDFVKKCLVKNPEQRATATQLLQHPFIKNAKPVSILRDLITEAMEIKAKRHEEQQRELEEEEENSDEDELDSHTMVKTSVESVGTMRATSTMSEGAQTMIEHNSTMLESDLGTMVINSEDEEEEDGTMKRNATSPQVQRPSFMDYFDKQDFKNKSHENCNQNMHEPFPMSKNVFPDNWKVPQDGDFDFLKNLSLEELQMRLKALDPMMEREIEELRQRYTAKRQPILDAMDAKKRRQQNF

NIM1(h) = NIM1(h) (Homo sapiens (Human), UniProt Q8IY84); assay: KinaseProfiler panel; set-up: dose or concentration left out as unconfirmed; conditions: activity remaining
Chain of NIM1(h) (Q8IY84 whole entry): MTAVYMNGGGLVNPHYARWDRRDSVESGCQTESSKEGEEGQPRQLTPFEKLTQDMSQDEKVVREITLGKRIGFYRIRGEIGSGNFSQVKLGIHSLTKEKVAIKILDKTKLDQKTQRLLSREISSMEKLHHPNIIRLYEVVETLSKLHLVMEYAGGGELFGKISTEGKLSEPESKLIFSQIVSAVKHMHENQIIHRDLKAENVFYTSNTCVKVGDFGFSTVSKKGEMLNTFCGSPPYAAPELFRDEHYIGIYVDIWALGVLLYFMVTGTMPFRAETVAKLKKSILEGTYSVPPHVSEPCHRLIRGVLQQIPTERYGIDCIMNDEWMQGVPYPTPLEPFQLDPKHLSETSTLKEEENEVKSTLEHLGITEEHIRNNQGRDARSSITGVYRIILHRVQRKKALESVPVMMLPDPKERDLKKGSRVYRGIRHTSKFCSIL

Wee1B(h) = Wee1B(h) (Homo sapiens (Human), UniProt P0C1S8); assay: KinaseProfiler panel; set-up: dose or concentration left out as unconfirmed; conditions: activity remaining
BIKE = BIKE (Homo sapiens (Human), UniProt Q9NSY1); assay: KinaseProfiler radiometric assay (16-044KP); conditions: mean of at least two independent experiments
Chain of BIKE (Q9NSY1 whole entry): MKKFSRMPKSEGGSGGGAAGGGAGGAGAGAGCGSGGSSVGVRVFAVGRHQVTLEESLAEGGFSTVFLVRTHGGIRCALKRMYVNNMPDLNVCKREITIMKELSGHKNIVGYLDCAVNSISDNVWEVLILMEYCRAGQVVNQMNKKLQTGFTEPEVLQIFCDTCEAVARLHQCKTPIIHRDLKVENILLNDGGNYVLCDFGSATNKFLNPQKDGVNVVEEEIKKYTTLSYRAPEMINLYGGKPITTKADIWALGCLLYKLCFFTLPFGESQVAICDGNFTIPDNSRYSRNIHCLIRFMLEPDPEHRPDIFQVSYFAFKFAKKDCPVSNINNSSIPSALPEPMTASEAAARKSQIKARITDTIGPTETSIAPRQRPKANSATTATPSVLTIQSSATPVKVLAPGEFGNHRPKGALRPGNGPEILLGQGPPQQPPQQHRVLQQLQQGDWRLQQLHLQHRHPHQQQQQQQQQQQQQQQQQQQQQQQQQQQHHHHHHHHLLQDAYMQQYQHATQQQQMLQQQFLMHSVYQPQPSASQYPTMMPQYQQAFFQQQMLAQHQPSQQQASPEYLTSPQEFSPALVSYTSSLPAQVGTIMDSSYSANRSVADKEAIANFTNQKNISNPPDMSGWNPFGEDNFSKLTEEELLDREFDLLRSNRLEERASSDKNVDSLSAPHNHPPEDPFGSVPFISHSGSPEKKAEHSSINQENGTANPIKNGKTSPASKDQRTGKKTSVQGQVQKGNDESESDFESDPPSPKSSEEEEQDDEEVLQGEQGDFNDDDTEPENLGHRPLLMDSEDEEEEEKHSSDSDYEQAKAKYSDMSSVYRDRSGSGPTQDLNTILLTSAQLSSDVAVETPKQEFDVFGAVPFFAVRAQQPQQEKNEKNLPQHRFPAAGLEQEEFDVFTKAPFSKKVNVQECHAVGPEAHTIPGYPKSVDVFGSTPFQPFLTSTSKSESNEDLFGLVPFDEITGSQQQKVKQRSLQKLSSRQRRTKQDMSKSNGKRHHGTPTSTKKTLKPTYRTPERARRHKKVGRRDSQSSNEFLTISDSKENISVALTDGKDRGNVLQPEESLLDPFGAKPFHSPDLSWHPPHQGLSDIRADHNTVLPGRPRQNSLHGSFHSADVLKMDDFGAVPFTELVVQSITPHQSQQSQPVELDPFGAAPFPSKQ
Source text: In another aspect, disclosed is a method of inhibiting citron kinase in a sample, comprising contacting the sample with a compound described herein (e.g., a compound of formula (I) or a pharmaceutically acceptable salt thereof), or a pharmaceutical composition described herein (e.g., a pharmaceutical composition comprising a compound of formula (I) or a pharmaceutically acceptable salt thereof), in an amount effective to inhibit citron kinase. In some embodiments, the step of contacting the sample with the compound comprises administering the compound to a subject (e.g., a subject) suffering from cancer. Methods of determining kinase inhibition are well known in the art. For example, kinase activity of an enzyme and the inhibitory capacity of a test compound can be determined by measuring enzyme specific phosphorylation of a substrate. Commercial assays and kits can be employed. For example, kinase inhibition can be determined using a radiometric binding assay, such as using KinaseProfiler™ technology (Eurofins Discovery). This assay method directly detects product formation without the use of modified substrates or coupling enzymes. […]
The effect of various compounds on the inhibition of other kinases has also been determined. Table 2 reports measured IC50 values; value units are nanomolar inhibition.

CK1γ2(h) = CK1γ2(h) (Homo sapiens (Human), UniProt P78368); assay: KinaseProfiler panel; set-up: dose or concentration left out as unconfirmed; conditions: activity remaining
Chain of CK1γ2(h) (P78368 whole entry): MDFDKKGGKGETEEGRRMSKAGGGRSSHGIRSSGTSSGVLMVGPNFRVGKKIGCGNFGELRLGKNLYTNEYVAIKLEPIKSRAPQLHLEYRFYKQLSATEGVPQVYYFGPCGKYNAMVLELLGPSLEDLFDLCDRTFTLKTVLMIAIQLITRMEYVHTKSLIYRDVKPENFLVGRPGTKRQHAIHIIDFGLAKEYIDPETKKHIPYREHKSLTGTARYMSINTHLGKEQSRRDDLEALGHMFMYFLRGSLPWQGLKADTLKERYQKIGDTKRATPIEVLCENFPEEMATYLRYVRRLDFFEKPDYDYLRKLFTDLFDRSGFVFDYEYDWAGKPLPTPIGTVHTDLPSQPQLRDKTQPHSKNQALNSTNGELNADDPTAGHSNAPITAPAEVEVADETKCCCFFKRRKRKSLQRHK

CaMKIβ(h) = CaMKIβ(h) (Homo sapiens (Human), UniProt Q6P2M8); assay: KinaseProfiler panel; set-up: dose or concentration left out as unconfirmed; conditions: activity remaining
Chain of CaMKIβ(h) (Q6P2M8 whole entry): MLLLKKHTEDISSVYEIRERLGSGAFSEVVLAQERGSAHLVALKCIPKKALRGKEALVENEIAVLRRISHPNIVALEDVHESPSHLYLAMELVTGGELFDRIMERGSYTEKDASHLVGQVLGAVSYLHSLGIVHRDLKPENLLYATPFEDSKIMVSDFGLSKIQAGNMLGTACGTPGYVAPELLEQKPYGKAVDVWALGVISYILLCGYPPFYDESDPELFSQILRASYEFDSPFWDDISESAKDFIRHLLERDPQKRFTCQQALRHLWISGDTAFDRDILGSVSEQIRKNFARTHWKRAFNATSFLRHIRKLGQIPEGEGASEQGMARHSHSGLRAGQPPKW

## Cc1cc2c(-c3ccc(NC(=O)[C@H](N)CC(C)(C)C)cc3C)ccnc2[nH]1 [Compound F-90, (2R)-2-Amino-4,4-dimethyl-N-[3-methyl-4-(2-methyl-1H-pyrrolo[2,3-b]pyridin-4-yl)phenyl]pentanamide]
FGFR4(h)
  % Activity: 114%
PKCι(h)
  % Activity: 110%
IKKα(h)
  % Activity: 98%
PKCβII(h)
  % Activity: 87%
TrkC(h)
  % Activity: 86%
TAF1L(h)
  % Activity: 101%
SLK(h)
  % Activity: 109%
HIPK1(h)
  % Activity: 100%
GSK3β(h)
  % Activity: 93%
MOK(h)
  % Activity: 90%
SGK(h)
  % Activity: 113%
WNK4(h)
  % Activity: 97%
TGFBR1(h)
  % Activity: 103%
ATM(h)
  % Activity: 103%
CaMKK2(h)
  % Activity: 96%
TTBK1(h)
  % Activity: 96%
NDR2(h)
  % Activity: 107%
EphA8(h)
  % Activity: 115%
EphB2(h)
  % Activity: 96%
Lck(h)
  % Activity: 86%
MST2(h)
  % Activity: 106%
NIM1(h)
  % Activity: 112%
Wee1B(h)
  % Activity: 88%
BIKE
  pIC50: 6.04
CK1γ2(h)
  % Activity: 97%
CaMKIβ(h)
  % Activity: 85%
